SMILES | melting point [°C]
O=C1C=C(c2cccn2Cc2ccccc2)C(=O)c2ccccc21 | 99
O=C(O)C(=O)CC(=O)c1cccn1Cc1cccc(Cl)c1 | 159 to 161
Cc1nc2c(N)nc3cccnc3c2n1Cc1cc(-c2ccc(F)cc2)no1 | 239 to 240
Cn1cc(CN2CCN(CCOc3ccc(C=C4SC(=O)NC4=O)cc3)CC2)c2ccccc21 | 183 to 188
CC(=O)Oc1cccnc1-n1ccnc1SCc1ccccc1N1CCOCC1 | 89 to 91
COc1ccc(C2=NN(Cc3ccccc3N)C(=O)SC2)cc1OC | 105
CCOCC(C)Oc1ccc(COc2cnn(C(C)(C)C)c(=O)c2Cl)cc1 (stereo not given) | 72.3 to 73.1
O=C(O)c1cn(C2CC2)c2cc(N3CCNC(c4cc5ccccc5o4)C3)c(F)cc2c1=O (stereo not given) | 203 to 206
COc1ccc(CN2C(=O)[C@@H](NC(=O)Cc3ccccc3)[C@H]2CNC(C)=O)c(OC)c1 (relative stereo) | 205 to 207
CC(C)(C)OC(=O)CNNC(=O)OCc1ccccc1 | 61 to 62
CCOC(=O)C=Cc1ccncc1 | 64 to 66
Cc1cc(N(C)C)ccc1-c1c(O)c(=O)c1=O | > 114
CCCCC[C@H]1CC[C@H](c2ccc(-c3ccc(C=O)cc3)cc2)CC1 | 115 to 116
CNC(=O)[C@@H](N)Cc1ccc(OC)cc1 | 90 to 91
Cc1cccc(NC(=O)NCC(=O)N(CC(=O)N2CCc3ccccc32)c2ccccc2)c1 | 190
COC(=O)Nc1nc2cc(SCC3CC3(Cl)Cl)ccc2[nH]1 (stereo not given) | 211 to 213
CCCc1c(OCCCOc2ccc3c(c2CCC)OC(CCC#N)CC3)ccc(C(C)=O)c1O (stereo not given) | 89 to 89.5
N#Cc1ccc(NC2CCCCC2)c([N+](=O)[O-])c1 | 109
COc1cc(-c2nccn2N=Cc2ccc(N(C)C)cc2)cc(OC)c1OC | 232
CC(=O)c1cccc(Oc2ncccc2C(=O)NCc2ccc([C@H](C)O)cc2)c1 | 102 to 104

SMILES | melting point [°C]
Cc1cnc2n1-c1sc(CCCO)cc1C(c1ccccc1Cl)=NC2 | 131 to 134
COc1ccc(C=CC(=O)c2cccc([N+](=O)[O-])c2)c(OC)c1 | 88.1 to 88.7
Cc1cccc(CCOc2ccc(C#N)cc2)n1 | 66 to 67
O=C(Nc1cccc(S(=O)(=O)NCc2cccnc2)c1)c1cnn2c(C(F)F)cc(-c3ccc(C(F)(F)F)cc3)nc12 | 256
CC(C)(C)C(=O)CC(=O)c1ncn2c1c(=O)n(C(C)(C)C)c1ccccc12 | 190 to 191
O=c1c2cc(OCc3ccccc3)ccc2[nH]c2c([N+](=O)[O-])ccc(Cl)c12 | 216 to 217
CN1CCN(C(=O)c2cc(=O)c3c(OCCOc4ccccc4)cccc3o2)CC1 | 90 to 91.5
COCOCc1ccc(C2Cn3cc(C(=O)NCc4ccc(Cl)cc4)c(=O)c4cc(CN5CCOCC5)cc(c43)O2)cc1 (stereo not given) | 236 to 239
CCc1cccc(C)c1CNc1cc(C(=O)NCCO)cc2c1nc(C)n2C | 200 to 201
COc1ccc(S(=O)(=O)CC(C)=CCOC(C)=O)cc1 | 54 to 56
NC(=O)c1c(N)sc2c1CCC1(C2)OCCO1 | 157 to 158
Cc1cccc(-c2nc(N)c3ccccc3n2)n1 | 201
Fc1ccc2occ(CCN3CCN(c4cccc5cccnc45)CC3)c2c1 | 54
CC(=O)c1cc2c(c(Cl)c1O)OC(C(O)=NO)C2 (stereo not given) | 234 to 235
CCCCCNC(=S)NC(=Nc1ccccc1)c1ccccc1 | 157 to 158
N#Cc1nc(Cl)nc(N2CCS(=O)CC2)c1Cl | 145 to 147
Cc1cc(O)c2c(C)nn(-c3ccccn3)c2n1 | 175 to 176
COc1ccc(OC2COc3ccc(OCc4cc(OC)ccn4)cc3C2O)cc1 (stereo not given) | 80 to 82
CC(C)Oc1cccc(NC(=O)NCc2c(-c3ccccc3)c3cc(Cl)ccc3n2C)c1 | 218 to 220
CCN1C(=O)C(C)(C)C(=O)N(C)c2cc(CN(CCc3cccnc3)Cc3scnc3C)ccc21 | 118 to 120

SMILES | melting point [°C]
COC(=O)C(CCl)NC(=O)c1c(F)cccc1F (stereo not given) | 93.5
Cc1ccccc1N1CCc2cnc3c(C)cccc3c21 | 109 to 110
CSC[C@H](NC(=O)C(C)(C)SC)C(=O)O | 120 to 121
O=C(N[C@H](Cc1ccc(C(F)(F)F)cc1)[C@@H](O)c1ccc(F)cc1F)c1ccc(F)c2ccccc12 (racemic) | 194 to 195
NS(=O)(=O)c1ccc(-c2oc(C(F)(F)F)nc2-c2ccccc2)cc1 | 137 to 138
O=C(O)c1ccc(-c2cnc(-c3ccc(C(F)(F)F)cc3)s2)cc1 | 294 to 295
CC(C)(CCl)C(=O)NCc1ccc(Cl)cc1 | 97 to 98
COc1cn(-c2ccc(N3CCNC3=O)cc2F)nc(-c2ccnn2-c2ccccc2)c1=O | 259 to 260
CCOC(=O)CNC(=O)Nc1c(-c2ccccc2OC)c2ccccc2c(=O)n1C | 128 to 130
Cc1cc(C)c(CP(=O)(Cc2c(C)cc(C)cc2C)Cc2c(C)cc(C)cc2C)c(C)c1 | 232 to 233
Brc1ccc(-c2cc3c(ccc4ccccc43)o2)cc1 | 154 to 155
Cc1oncc1C(=O)c1ccc(S(C)=O)c(Cl)c1Cl (stereo not given) | 125 to 126
COc1ccc(C(=O)Cl)cc1I | 58
CCC(=O)NCc1ccc2ccn(C3CCN(CCc4ccc(F)cc4)CC3)c2c1 | 141 to 142
O=C1c2ccc3cccnc3c2N=CC1S(=O)(=O)CC(F)(F)F (stereo not given) | 272 to 274
C[C@@H]1CN(C(=O)[C@@](C)(O)C(F)(F)F)[C@@H](C)CN1S(=O)(=O)c1ccc(C(=O)O)cc1 | 194 to 196
COC(=O)CCCC(=O)c1ccccc1C=CBr | 52 to 55
CC(C)Cc1ccc(COc2ccc(CC(=O)O)cc2Cl)cc1 | 97 to 99

Second part, the compound after the results:

melting point [°C] | SMILES
129 to 131 | Nc1ncc(-c2ccccc2)nc1Oc1ccccc1
116 | COc1c(Cl)nc(N2CCOCC2)nc1Cl
231 to 232 | Cc1ccc2c(c1)NC(=O)c1ccccc1O2
80 to 83 | CC(C)(C)[Si](C)(C)Oc1ccc(N)c([N+](=O)[O-])c1
107 | CCCCOc1cc(O)c(C#N)s1
84 to 85 | COc1ccc(Cc2cc(C(C)(C)C)cc(C(C)(C)C)c2O)cc1
209 to 210 | CN(c1cccc2cc(C3=NCC(C)(CN4CCN(S(C)(=O)=O)CC4)S3)[nH]c12)S(=O)(=O)c1cccs1 (stereo not given)
131 to 133 | CN(C(=O)OC[C@@]1(C)Cn2cc([N+](=O)[O-])nc2O1)c1ccc(Cl)cc1
38.1 to 38.3 | CCCOC(=NNC(=O)OC)OCCC
315 | Cc1ccc(-c2cnc3c(N)ncnc3n2)cc1
145 | O=C(NC1CCC(CCN2CCN(c3nccc4c3OCC4)CC2)CC1)C1CCCO1 (racemic)
235 to 238 | COc1ccc(-c2nc3cc4c(cc3[nH]2)C(C)(C)CC(=O)N4)cc1
128 to 130 | CC(=O)N(C(=O)N(C)C)c1snc(C(C)C)c1C#N
116 to 118 | Cc1oc(-c2ccccc2)nc1Cc1cc2cc(C=O)ccc2o1
91 to 93 | O=C(O)COc1c(F)cc(SCCNS(=O)(=O)c2ccccc2)cc1F
135 to 136 | CCCCCCCCCCNC(=O)c1ccc(C(=O)NCCCCCCCCCC)c(N(CC(=O)O)CC(=O)O)c1
< 40 | CCOC(=O)C(O)=CC=C(SCc1ccccc1)C(=O)OCC
96 to 107 | NC1=NC(c2ccc(OC(F)F)cc2)(c2cccc(-c3cccnc3F)c2)C2=NCC3(COC3)CN12 (stereo not given)
114 to 122 | O=C1CCC(=O)N1CCSc1ccc(O)cc1
150 to 152 | ON=C(c1ccccc1)C(O)(c1ccccc1)c1ccccc1
279 to 281 | O=C(O)C1(c2ccc(Nc3nc(N4CCOCC4)nc4c3CCC4)cc2)CCC1

melting point [°C] | SMILES
258 to 262 | CCOC(=O)c1c2n(c3cc(Br)c(F)cc3c1=O)CCS2
137 to 141 | O=C(O)c1cccc(OC(Cl)=CCl)c1
103 to 106 | CCOC[PH](=O)SCCSCCNC(=O)CCCCCn1c(=O)n(C)c(=O)c2[nH]cnc21 (stereo not given)
144 to 145 | Nc1ccc(-c2nc(Cc3ccccc3)no2)cc1Br
101 to 103 | COc1ccc(-n2[nH]c(Cc3c(C)n(C(=O)c4ccc(Cl)cc4)c4ccc(OC)cc34)cc2=O)cc1
167 to 168 | Cc1ccc(-c2nnc(N3CCC(O)CC3)nc2-c2ccc(C)cc2)cc1
228 to 230 | COc1ccc(Nc2cccc3c2C(=O)N(C2CCC(=O)NC2=O)C3=O)cc1 (stereo not given)
130 | CN1CCN(C(=O)N2CCN(C(=O)OC(C)(C)C)CC2)CC1
194 to 195 | CCOC(=O)CCC1CCN(C(=O)[C@H](C)NC(=O)c2ccc(C(O)=NN)cc2)CC1
161 | O=c1c2ccccc2sc2cc(OCC3CO3)cc(O)c12 (stereo not given)
74 to 77 | COC(=O)c1ccc(C=C(C)[N+](=O)[O-])c(Cl)c1
73 | CCOC(=O)COc1ccc(C2OCCCO2)cc1NC(=O)c1ccc(OCCCCc2ccccc2)cc1
89 | COc1cc(C)c(C(=O)c2c(Cl)cccc2Cl)cc1Oc1ccccc1
60 to 62 | Nc1sc2c(c1C(=O)c1ccc(Cl)cc1)CCN(C(=O)OCc1ccccc1)C2
79 to 80 | CCCCCCCCCCCCCCC(O)(CCCCC(=O)O)CCCCC(=O)O
37 to 40 | COP(=O)(CC(=O)COc1ccc(Cl)cn1)OC
207 to 209 | CC(C)c1cccc(C(C)C)c1NC(=O)c1ccccc1N
78 to 80 | CC(=O)OCC(C)(C)C(=O)N(O)Cc1ccccc1Cl
196 to 207 | O=C(O)CCCc1cc2nc(Cl)ccc2n1S(=O)(=O)c1ccc(-n2cccn2)cc1
193 to 194 | Cc1nc2ccccc2n2c(-c3cc(OCC(O)c4ccccn4)ccc3Cl)nnc12 (stereo not given)
175 to 176 | Cc1cn(C2CC(O)C(CO)(N=[N+]=[N-])O2)c(=O)[nH]c1=O (stereo not given)

— a melting point compilation (Tetko et al.; mined from patent text by program, amines drawn as free bases though some values may be those of a salt)
